These are literature values, as cited in patent publication US20040067918A1, “Combination of an aldosterone receptor antagonist and nicotinic acid or a nicotinic acid derivative” (priority 2002, published 2004).

For the data set the following is noted: severe heart failure patients on standard therapy, relative to placebo-treated subjects.

In the case of `CC(=O)SC1CC2=CC(=O)CCC2(C)C2CCC3(C)C(CCC34CCC(=O)O4)C12` (stereo not drawn) [spironolactone, 17-hydroxy-7α-mercapto-3-oxo-17α-pregn-4-ene-21-carboxylic acid γ-lactone acetate], the incidence of hospitalization entry is given as “statistically significant reduction” and the mortality entry is on record as “statistically significant reduction”.
